Data set [1] deals with IEC-6 cells. The experiment in a line: Specific steroid uptake from TDC-DMPC micelles by IEC-6 cells. The data set is classed as cell-based, rat. The method, then:
There was less than 15% variation between duplicates. Under these conditions of incubation the monolayer remained intact.
Referring to FIG. 1, monolayers on 12 well plates of IEC-6 cells were incubated for the indicated times at 37° C. with ^3 H-cholesterol (.circle-solid.), ^14 C-sitosterol (o), or ^3 H-cholesteryl oleate (.tangle-solidup.) in TDC-DMPC micelles as described above. The concentration (75 μM) and specific activity of the steroid was the same in all three conditions. After the desired incubation period, the media was removed, the monolayers were washed, the cells solubilized, and the amount of radioactivity incorporated into the cells was determined and plotted as counts per minute in the cells. […] At 60 minutes the cholesterol content of the cells was 2.7 times the sitosterol. Since sitosterol is closely related to cholesterol both chemically and physically, this indicated a biologically specific uptake. […] Thus, the IEC-6 cells were able to absorb specifically cholesterol from the mixed micelles.

Data set [2] is described as follows: Uptake of micellar steroid from isolated duodenum into mucosal homogenate. The format is in vivo, rat. As for the experimental part:
Fifty Wistar male rats were anesthetized with phenobarbital and a celiotomy was performed. The duodenum was isolated with ligatures of umbilical tape at the pylorus and the ligament of Treitz. One ml of a suspension of micelles containing ^3 H-cholesterol and ^14 C-sitosterol together with taurodeoxycholate (TDC) and dimyristic phosphatidyl choline (DMPC) (Safonova et al. 1994) were injected into the isolated duodenum of each rat. Following ten minutes incubation in the duodenum the gut loop was excised. The duodenum was opened lengthwise with iris scissors and mucosal contents were vigorously washed in two changes of 0.15M NaCl, 20 mM Hepes solution (pH 7.5). The mucosa was scraped free with a glass microscope slide and homogenized in a Virtis homogenizer for 5 minutes and 12 strokes in a Potter-Elvehjeim homogenizer as previously described (Conrad et al. 1993). […] Membranes were collected by centrifugation at 20,000×g for 20 minutes. Membrane proteins were extracted overnight at 4° C. in 1% Triton X 100 20 mM Hepes pH 7.5. The suspension was centrifuged at 20,000×g for 20 minutes. The solubilized material (70 ml) contained 70% of the radiolabeled cholesterol. The solubilized material was applied to a 240 ml column of DE-92 (Whatmann) equilibrated in 20 mM Hepes, 1% Triton X 100 pH 7.5 and eluted with a saline gradient. […]

Data set [3] has as its system alkaline phosphatase. Particulars: levamisole 58 mM, pH 8.5, 30 minutes at 37° C., IEC-6 homogenate, FIG. 2. The method, then: An incubation mixture of […] was prepared containing 0.1 ml of 500 mM Hepes pH 8.5, 25 mM MgCl2, 2.5 μM ZnCl2, and 0.5 ml of homogenate [1.0 mg/ml protein as determined by BCA method (Pierce, Rockford, Ill.)]. The indicated amount of p-nitrophenyl phosphate was added and the incubation allowed to proceed for 30 minutes at 37° C. To some of the tubes levamisole (58 mM) was added. After the incubation the absorption at 412 nm was determined.

Data set [4] has as its system IEC-6 cells. Conditions: increasing concentrations of levamisole, 30 minutes at 37° C., FIG. 3.
Procedure: Radioisotopes were obtained from NEN (Billerca, Mass.) and other chemicals from Sigma (St. Louis, Mo.). ^3 H-cholesterol micelles were prepared from dimyristic phosphatidyl choline (DMPC) and taurodeoxycholate (TDC) as described by others (Safanova et al. 1994). The final solution contained 2.2×10^6 cpm/ml, 0.1 μM cholesterol, 60 mM DMPC and 6.5 mM TDC. Micelles with ^14 C-sitosterol or ^3 H-cholesteryl oleate were similarly prepared using the appropriate steroid and had the same specific activity. IEC-6 cells (Quaroni et al. 1979) obtained from the American Type Culture Collection (12301 Parklawn Drive, Rockville, Md.) were grown to confluence on 12-well Corning tissue culture plates. The media was removed and the monolayers were washed with phosphate buffered saline containing calcium, magnesium, and glucose (PBS). One ml of PBS was added to each well and 40 μl of the micellar solution (for a final steroid concentration of 4 nM). After incubation at 37° C., the plates were chilled and the wells washed four times in cold PBS. Water (0.5 ml) was added, and the plates were sonicated for 15 minutes (Branson model B-220, Shelton, Conn.) and then washed in an additional 0.5 ml of water. The water lysates were combined and counted in Ready-Safe (Beckman, Fullerton, Calif.) scintillation fluid. There was less than 15% variation between duplicates. […]
For data set [5], the system named is IEC-6 cells. Particulars: 32 mM levamisole, 60 minutes at 37° C., 20-60% sucrose gradient, FIG. 5.
Procedure: Two petri dishes (7.5 cm) with monolayers of IEC-6 cells were grown to confluence and used for each experiment. Each plate was washed in PBS and then incubated with 3 ml of PBS containing 120 μl of cholesterol micelles. In two parallel petri dishes an identical incubation was performed but with the addition of 32 mM levamisole. After 60 minutes incubation the dishes were chilled, washed four times with cold PBS and then harvested by scraping the dishes into 8 ml of 10 mM Hepes, 10 mM NaCl pH 7.4. The cells were homogenized using a Tissue-Tearor (Biospec Products, Bartlettsville, Okla.) at full speed for 30 seconds×3. The homogenate was layered on top of a 26 ml linear sucrose gradient from 20-60% (w/w). Centrifugation was performed over 18-20 hours at 19,000 rpm with a S-20 rotor in a Sorvall RC28S (DuPont, Wilmington, Del.) centrifuge. The tubes were punched from the bottom and 1 ml fractions collected. Standard methods were used to identify the membrane fractions (Storrie & Madden 1990) utilizing p-nitrophenyl-sugars and spectrophotometric analysis.
Referring to FIG. 4, IEC-6 cells were incubated with ^3 H-cholesterol micelles for 60 minutes at 37° C., and then washed, homogenized, and separated on 20-60% sucrose gradients. The gradients were centrifuged to equilibrium. The location of various membrane fragments was determined by standard enzymatic methods (Storrie & Madden 1990). […]

Data on four compounds can be found in patent publication US5872141A, “Method of inhibiting cholesterol transport” (priority 1997, dated 1999).

Structures are written as SMILES. Like-named read-outs stand apart in the source and are kept apart here.

As to `CCCCCCCC/C=C\CCCCCCCC(=O)O[C@H]1CC[C@@]2(C)C(=CC[C@H]3[C@@H]4CC[C@H]([C@H](C)CCCC(C)C)[C@@]4(C)CC[C@@H]32)C1` [Cholesterol ester, cholesteryl oleate], the “uptake by IEC-6 cells” value in data set [1] is listed as “poorly absorbed”.

For the compound `CC(C)CCC[C@@H](C)[C@H]1CC[C@H]2[C@@H]3CC=C4C[C@@H](O)CC[C@]4(C)[C@H]3CC[C@]12C` [cholesterol], the “total uptake into the homogenate, % of added steroid” value in data set [2] (rat, in vivo, 10 min) was 16%. Besides, the “uptake by IEC-6 cells” value in data set [1] is listed as “linear for at least an hour”.

Consider `c1ccc([C@H]2CN3CCSC3=N2)cc1` [levamisole, 2,3,5,6-tetrahydro-6-phenylimidazo-[2,1-b]thiazole], for which, in data set [3], the “alkaline phosphatase activity inhibition (mode)” value is “competitively inhibited”. Besides, the “effect of increasing drug concentration on cholesterol uptake” value in data set [4] is reported as “did not result in complete inhibition of uptake”. In addition, the cholesterol uptake inhibited result in data set [4] (maximal inhibition) is “Approximately 50%”. Further, the “subcellular location of 3H-cholesterol label” value in data set [5] is given as “majority of the label was found in the plasma membrane fraction (P)”.

For the compound `CC[C@H](CC[C@@H](C)[C@H]1CC[C@H]2[C@@H]3CC=C4C[C@@H](O)CC[C@]4(C)[C@H]3CC[C@]12C)C(C)C` [sitosterol], the “total uptake into the homogenate, % of added steroid” value in data set [2] (rat isolated duodenum, micelles with TDC and DMPC, ten minutes incubation) is given as 2%. Moreover, the “uptake by IEC-6 cells” value in data set [1] (37° C., TDC-DMPC micelles, FIG. 1, cholesterol ester without added pancreatic cholesterol esterase) was “incorporated much less efficiently”.
